The EC50 is the midpoint of the concentration-response curve.

The structures appear in SMILES notation.

The values below come from US20250340537A1, “PHARMACEUTICALLY ACTIVE COMPOUNDS, COMPOSITIONS, AND METHODS FOR MODULATING PENDRIN” (ARBORMED Co., Ltd., priority 2022, published 2025).

Holding throughout (assay type): cell-based
In experiment [1] the target is T1, H723R-pendrin (Homo sapiens, UniProt O43511, H723R).
T1 construct: expressed in transfected cells; host or cells: PANC-1
T1 sequence (O43511 1-780 H723R): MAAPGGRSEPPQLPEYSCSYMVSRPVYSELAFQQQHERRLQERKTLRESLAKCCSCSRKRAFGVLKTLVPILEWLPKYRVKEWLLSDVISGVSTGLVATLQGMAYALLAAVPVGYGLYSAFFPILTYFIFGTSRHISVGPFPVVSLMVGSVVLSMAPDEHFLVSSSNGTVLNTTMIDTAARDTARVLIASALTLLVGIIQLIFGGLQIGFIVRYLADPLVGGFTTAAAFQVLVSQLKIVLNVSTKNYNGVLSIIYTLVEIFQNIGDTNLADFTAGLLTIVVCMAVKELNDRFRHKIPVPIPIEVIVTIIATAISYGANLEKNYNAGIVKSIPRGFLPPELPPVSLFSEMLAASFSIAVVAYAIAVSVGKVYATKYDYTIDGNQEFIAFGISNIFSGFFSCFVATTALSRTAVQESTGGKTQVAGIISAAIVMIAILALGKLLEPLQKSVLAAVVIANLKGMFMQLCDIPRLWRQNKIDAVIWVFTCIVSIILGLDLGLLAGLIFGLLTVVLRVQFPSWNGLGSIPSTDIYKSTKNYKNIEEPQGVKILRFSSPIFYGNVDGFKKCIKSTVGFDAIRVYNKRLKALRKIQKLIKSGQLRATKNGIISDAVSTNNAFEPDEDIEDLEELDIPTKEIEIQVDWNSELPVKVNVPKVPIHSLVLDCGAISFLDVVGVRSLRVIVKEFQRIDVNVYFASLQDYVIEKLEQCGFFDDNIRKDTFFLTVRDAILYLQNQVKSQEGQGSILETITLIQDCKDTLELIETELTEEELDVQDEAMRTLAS
As to the kind of experiment: YFP fluorescence quenching assay (Cl−/I− exchange activity of pendrin). Conditions: PANC-1 cells stably expressing human H723R-pendrin and YFP-F46L/H148Q/I152L; compound incubation 20-24 hours; iodide influx. From the text:
Halide sensor YFP F46L/H148Q/I152L is quenched by halide ion like Iodide. When such YFP is expressed in a cell, it expresses in the cytoplasm.
To measure H723R-PDS activity, PANC-1 cells were stably transfected with halide sensors YFP-F46L/H148Q/I152L and H723R-PDS which has problems with membrane trafficking due to misfolding.
If the cell-treated drug is a corrector for H723R-PDS, H723R-PDS will translocate normally to the plasma membrane.
At this time, when treated with a high-concentration iodide solution outside the cell, iodide enters the cell due to the Cl−/I− exchange activity of pendrin, and the fluorescence of the halide sensor YFP decreases.
PANC-1 cells were cultured in Dulbecco's Modified Eagle's Medium with 10% fetal bovine serum, 2 mM glutamine, 100 units/ml penicillin and 100 µg/ml streptomycin. For high-throughput screening, PANC-1 cells were stably transfected with human H723R-pendrin and halide sensor YFP-F46L/H148Q/I152L.
PANC-1 cells expressing human H723R-pendrin and YFP-F46L/H148Q/I152L were plated in 96-well microplates at a density of 2×10^4 cells per well and grown for 20-24 hours at 37° C. (90% humidity 5% CO2). Then these cells were treated with 50 μl growth medium containing test compounds and incubated for 20-24 hours. For YFP quenching assay, each well of the 96-well plate was washed 2 times with 200 μl of PBS, and it was filled with 50 μl of HEPES-buffered solution (140 mM NaCl, 5 mM KCl, 1 mM MgCl2, 1 mM CaCl2, 10 mM D-glucose, 10 mM HEPES; pH 7.4 with NaOH). After 10 minutes of incubation at 37° C., the 96-well plate was moved on the FLUOstar Omega Microplate Reader (BMG Labtech, Ortenberg, Germany) for a fluorescence assay. Each well was assayed individually for H723R-pendrin mediated I^− influx by recording fluorescence (495±15 nm excitation, 520±20 nm emission) every 400 ms for 1 second (baseline). Then, 50 μL of NaI-substituted HEPES-buffered solution (NaI replacing NaCl) was added using a liquid injector at 1 second and YFP fluorescence was recorded every 400 ms for 10 seconds. The initial iodide influx rate was determined from the initial slope of fluorescence by nonlinear regression, after the infusion of iodide.
It is indicated as EC50 with the following key: A=EC50 less than 5 uM; B=EC50 greater than 5 uM, but less than 10 uM; C=EC50 greater than 10 uM.

The next experiment addresses T2, H723R-hPDS (Homo sapiens, UniProt O43511, H723R).
T2 construct: expressed in transfected cells; host or cells: Panc1 (Panc1^hPDS-H723R)
T2 sequence (O43511 1-780 H723R): T1 sequence (O43511 1-780 H723R)
The experiment can be described thus: Surface biotinylation assay. Conditions: Panc1 hPDS-H723R cells, 24 h treatment. From the text:
Surface biotinylation is a commonly used technique to specifically isolate plasma membrane proteins using a modified biotin in a form that is easy to bind with proteins. Sulfo-NHS-SS-biotin is a generally used reagent in surface biotinylation due to its impermeability and water solubility. In cool conditions, the extracellular domain of membrane proteins is covalently binding with the reactive biotin ester. These proteins are separated from the whole lysate via a biotin-streptavidin response. In this process, we can validate the increasing rate of the expression level of mutant pendrin in the plasma membrane.
Panc1^parental, Panc1^hPDS-WT and Panc1^hPDS-H723R cells were cultured in high glucose DMEM medium supplemented with 10% fetal bovine serum and 1% antibiotics. 24 hours after seeding in 6-well plates, cells were treated as indicated for 24 h. Cells were washed in PBS and incubated on ice with 0.3 mg/ml biotin in PBS. After 35 min, 1% BSA in PBS, D.W mixture (1:1) was added to cells, and cells were incubated for 10 min. Cells were washed and lysed in lysis buffer. The lysates were sonicated for 20 seconds, and not boiled. After centrifugated, the supernatants were collected and quantified via BCA analysis. The quantified supernatants were added to 10% avidin beads in PBS and incubated overnight at 4° C. After incubation, the below steps were repeated 4 times: i) centrifugation, ii) removing the supernatant, iii) washing with lysis buffer. After the last centrifugation and removing the supernatant, the sample buffer mixed with reducing buffer was added to biotin-avidin mixtures. The elution was accomplished in the 38° C. bioshaker for 40 min and the supernatant was collected. The supernatant was separated by SDS-PAGE and transferred to an Immobilon membrane. After incubation in 5% BSA solution to prevent nonspecific binding, the membrane was incubated with specific antibodies overnight. Then, the membrane was washed with TBST buffer and incubated with HRP-conjugated anti-rabbit or -mouse antibody for 1 hour. The ECL buffer and iBright were used for the visualization of protein bands. The respective protein band intensity was quantified by densitometric analysis using the NIH ImageJ program.
It is indicated as expression % with the following key: A=Expression % greater than 100%; B=Expression % greater than 50%, but less than 100%; C=Expression % less than 50%.

The target of experiment [2] is T1, H723R-pendrin. The experiment can be described thus: PTI assay (Cl−/HCO3− exchange activity). Conditions: PANC-1 cells, BCECF pHi. As to the method:
Measurements of intracellular pH (pHi) in PANC-1 cells were performed with the pH-sensitive fluorescent probe 2′,7′-bis-(2-carboxyethyl)-5-(and-6)-carboxyfluorescein (BCECF) according to previously reported protocols. Briefly, cells were incubated with 2 μM BCECF acetoxy-methylester for 5 min and then perfused with a HCO3^−-buffered solution [containing 120 mM NaCl, 5 mM KCl, 1 mM MgCl2, 1 mM CaCl2, 10 mM d-glucose, 5 mM Hepes, and 25 mM NaHCO3 (pH 7.4)].
BCECF fluorescence was recorded at excitation wavelengths of 490 and 440 nm at a resolution of 2/s on a recording setup. The Cl^−/HCO3^− exchange activities were estimated from the initial rate of pHi increase as a result of Cl^− removal from the HCO3^−-containing buffer (25 mM HCO3^− with 5% CO2).
The pHi calibration was performed with standard pH solutions containing 150 mM KCl and 5 μM nigericin. The intrinsic buffer capacity (βi) was calculated by measuring ΔpHi in response to 5 to 40 mM NH4Cl pulses in Na^+-free solutions. Because the βi values were not substantially affected by transfection with the plasmids encoding for WT-pendrin or H723R-pendrin, the Cl^−/HCO3^− exchange activities were expressed as ΔpH unit/min without compensating for the buffer capacity.
It is indicated as exchange % with the following key: A=Exchange % greater than 50%; B=Exchange % less than 50%.

On H723R-pendrin [1], `COc1ccc(-c2cncc(C3=C(N)N(CC(C)C)CC3=O)n2)cc1OC` [Compound 8] came in with an EC50 of under 5 µM. Further, the “Surface expression % of H723R-hPDS relative to WT-hPDS (Glycosylated form pendrin)” value on H723R-hPDS (3 uM) is recorded as “B (B=Expression % greater than 50%, but less than 100%)”; on H723R-hPDS (10 uM), “A (A=Expression % greater than 100%)”.
`CC(C)CN1CC(=O)C(c2cncc(-c3ccc(O)c(O)c3)n2)=C1N` [Compound 13]: the EC50 on H723R-pendrin [1] is under 5 µM. Also, the “Surface expression % of H723R-hPDS relative to WT-hPDS (Glycosylated form pendrin)” value at H723R-hPDS (3 uM) and at H723R-hPDS (10 uM) was “A (A=Expression % greater than 100%)” throughout.
The compound `COc1cc(-c2cncc(C3=C(N)N(c4ccccc4Cl)CC3=O)n2)ccc1O` [Compound 28] gave an EC50 at H723R-pendrin [1] of under 5 µM. For the same compound, the “Surface expression % of H723R-hPDS relative to WT-hPDS (Glycosylated form pendrin)” value at H723R-hPDS (3 uM) and at H723R-hPDS (10 uM) was “A (A=Expression % greater than 100%)” in each case. Also, the entries for the “Cl−/HCO3− exchange, % of WT-hPDS” value at H723R-pendrin [2] (3 uM) and at H723R-pendrin [2] (10 uM) were “B (B=Exchange % less than 50%)” and “A (A=Exchange % greater than 50%)”, respectively.
`NC1=C(c2cncc(-c3ccc(O)c(O)c3)n2)C(=O)CN1C1CCCC1` [Compound 33] had an EC50 on H723R-pendrin [1] of under 5 µM. Further, the “Surface expression % of H723R-hPDS relative to WT-hPDS (Glycosylated form pendrin)” value at H723R-hPDS (3 uM) and at H723R-hPDS (10 uM) was “A (A=Expression % greater than 100%)” throughout.
Compound `NC1=C(c2cncc(-c3ccc(O)c(O)c3)n2)C(=O)CN1CCC1CCCC1` [Compound 46] returned an EC50 on H723R-pendrin [1] of under 5 µM. In addition, the “Surface expression % of H723R-hPDS relative to WT-hPDS (Glycosylated form pendrin)” value is on record as “B (B=Expression % greater than 50%, but less than 100%)” on H723R-hPDS (3 uM) and “A (A=Expression % greater than 100%)” on H723R-hPDS (10 uM).
Take `NC1=C(c2cncc(-c3ccc(O)c(O)c3)n2)C(=O)CN1CC1CCCCC1` [Compound 49]: the EC50 on H723R-pendrin [1] was under 5 µM. For the same compound, the “Surface expression % of H723R-hPDS relative to WT-hPDS (Glycosylated form pendrin)” value on H723R-hPDS (3 uM) and at H723R-hPDS (10 uM) was “A (A=Expression % greater than 100%)” each time. Further, the “Cl−/HCO3− exchange, % of WT-hPDS” value at H723R-pendrin [2] (3 uM) and at H723R-pendrin [2] (10 uM) was “A (A=Exchange % greater than 50%)” in each case.
`NC1=C(c2cncc(-c3ccc(O)c(O)c3)n2)C(=O)CN1C1CCC(F)(F)C1` (stereo not shown) [Compound 62] yielded an EC50 on H723R-pendrin [1] of under 5 µM. In addition, the “Surface expression % of H723R-hPDS relative to WT-hPDS (Glycosylated form pendrin)” value is on record as “B (B=Expression % greater than 50%, but less than 100%)” at H723R-hPDS (3 uM) and “A (A=Expression % greater than 100%)” on H723R-hPDS (10 uM).
For the compound `NC1=C(c2cncc(-c3ccc(O)c(O)c3)n2)C(=O)CN1CC1CCC1` [Compound 69], the EC50 on H723R-pendrin [1] is under 5 µM. Also, the “Cl−/HCO3− exchange, % of WT-hPDS” value was “B (B=Exchange % less than 50%)” at H723R-pendrin [2] (3 uM) and “A (A=Exchange % greater than 50%)” on H723R-pendrin [2] (10 uM).
As to `COc1cc(-c2cncc(C3=C(N)N(CC4CCCC4)CC3=O)n2)ccc1O` [Compound 73], on H723R-pendrin [1], the EC50 was under 5 µM. The “Cl−/HCO3− exchange, % of WT-hPDS” value at H723R-pendrin [2] (3 uM) and at H723R-pendrin [2] (10 uM) was “A (A=Exchange % greater than 50%)” each time.
